Where “and” joins values, the source holds several entries; their conditions need not be identical. Equal values may be shown once.
Tests used:
Ret (V804M) = Ret (V804M) (Homo sapiens, UniProt P07949, V804M); assay: KinaseProfiler kinase activity assay; type: biochemical; design: purchased EMD Millipore Corp. (KinaseProfiler service); conditions: ATP at Km
Description: (§1) A summary is provided below.

Flt4 = Flt4 (Homo sapiens, UniProt P35916); assay: KinaseProfiler kinase activity assay; type: biochemical; design: purchased EMD Millipore Corp. (KinaseProfiler service); conditions: ATP at Km
Sequence of Flt4 (P35916 25-1363): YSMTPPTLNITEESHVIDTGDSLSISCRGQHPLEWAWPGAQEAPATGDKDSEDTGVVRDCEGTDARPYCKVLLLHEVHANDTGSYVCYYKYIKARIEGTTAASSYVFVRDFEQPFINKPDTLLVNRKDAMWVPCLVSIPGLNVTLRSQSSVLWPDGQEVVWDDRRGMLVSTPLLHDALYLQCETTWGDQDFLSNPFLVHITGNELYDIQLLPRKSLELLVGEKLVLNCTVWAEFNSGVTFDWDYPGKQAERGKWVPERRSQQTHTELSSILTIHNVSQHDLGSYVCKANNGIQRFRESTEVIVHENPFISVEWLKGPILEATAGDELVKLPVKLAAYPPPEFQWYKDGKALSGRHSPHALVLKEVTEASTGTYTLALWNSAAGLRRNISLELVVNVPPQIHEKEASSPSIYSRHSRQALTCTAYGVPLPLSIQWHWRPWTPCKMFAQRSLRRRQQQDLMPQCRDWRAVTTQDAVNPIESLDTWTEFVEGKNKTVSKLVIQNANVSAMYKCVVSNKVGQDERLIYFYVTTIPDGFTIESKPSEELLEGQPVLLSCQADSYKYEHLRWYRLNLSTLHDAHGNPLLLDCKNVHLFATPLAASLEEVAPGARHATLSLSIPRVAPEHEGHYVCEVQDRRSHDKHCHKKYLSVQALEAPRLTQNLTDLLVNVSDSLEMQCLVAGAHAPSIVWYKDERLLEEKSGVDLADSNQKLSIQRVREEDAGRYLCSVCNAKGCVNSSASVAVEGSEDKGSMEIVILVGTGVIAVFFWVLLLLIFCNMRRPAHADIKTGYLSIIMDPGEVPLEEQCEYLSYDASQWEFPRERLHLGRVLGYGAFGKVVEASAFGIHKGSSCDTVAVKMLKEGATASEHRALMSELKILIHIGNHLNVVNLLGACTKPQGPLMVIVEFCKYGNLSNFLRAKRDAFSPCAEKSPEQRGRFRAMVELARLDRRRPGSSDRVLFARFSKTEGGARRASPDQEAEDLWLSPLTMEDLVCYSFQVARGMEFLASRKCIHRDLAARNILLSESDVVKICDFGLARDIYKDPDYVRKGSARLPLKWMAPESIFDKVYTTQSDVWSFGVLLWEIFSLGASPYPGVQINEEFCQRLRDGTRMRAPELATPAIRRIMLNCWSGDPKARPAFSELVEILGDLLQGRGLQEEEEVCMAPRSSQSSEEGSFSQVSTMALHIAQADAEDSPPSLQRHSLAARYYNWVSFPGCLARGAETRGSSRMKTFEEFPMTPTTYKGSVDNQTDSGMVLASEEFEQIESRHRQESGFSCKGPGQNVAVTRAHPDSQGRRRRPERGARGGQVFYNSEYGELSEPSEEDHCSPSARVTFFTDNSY
Description: as §1

Yes = Yes (Homo sapiens, UniProt P07947); assay: KinaseProfiler kinase activity assay; type: biochemical; design: purchased EMD Millipore Corp. (KinaseProfiler service); conditions: ATP at Km
Sequence of Yes (P07947 whole entry): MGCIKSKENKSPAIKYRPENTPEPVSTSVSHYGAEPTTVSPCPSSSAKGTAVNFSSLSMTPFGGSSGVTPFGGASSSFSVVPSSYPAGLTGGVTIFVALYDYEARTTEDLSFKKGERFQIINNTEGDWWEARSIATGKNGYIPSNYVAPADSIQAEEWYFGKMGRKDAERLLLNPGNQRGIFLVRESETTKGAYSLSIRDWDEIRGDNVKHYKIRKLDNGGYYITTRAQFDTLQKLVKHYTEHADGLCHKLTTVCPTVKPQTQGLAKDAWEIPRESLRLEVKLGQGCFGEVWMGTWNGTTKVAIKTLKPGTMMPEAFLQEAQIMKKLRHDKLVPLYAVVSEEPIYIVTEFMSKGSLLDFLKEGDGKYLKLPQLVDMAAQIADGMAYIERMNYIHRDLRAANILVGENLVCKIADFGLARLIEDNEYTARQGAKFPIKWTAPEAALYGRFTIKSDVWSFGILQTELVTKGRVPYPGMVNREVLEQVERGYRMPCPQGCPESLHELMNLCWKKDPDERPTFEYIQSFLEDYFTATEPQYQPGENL
Description: as §1

Stk10 = Stk10 (Homo sapiens, UniProt O94804); assay: KinaseProfiler kinase activity assay; type: biochemical; design: purchased EMD Millipore Corp. (KinaseProfiler service); conditions: Stk10 (LOK); ATP at Km
Description: as §1

Flt1 = Flt1 (Homo sapiens, UniProt P17948); assay: KinaseProfiler kinase activity assay; type: biochemical; design: purchased EMD Millipore Corp. (KinaseProfiler service); conditions: ATP at Km
Description: as §1

Flt3 (D835Y) = Flt3 (D835Y) (Homo sapiens, UniProt P36888, D835Y); assay: KinaseProfiler kinase activity assay; type: biochemical; design: purchased EMD Millipore Corp. (KinaseProfiler service); conditions: ATP at Km
Description: as §1

TEK = TEK (Homo sapiens, UniProt Q02763); assay: KinaseProfiler kinase activity assay; type: biochemical; design: purchased EMD Millipore Corp. (KinaseProfiler service); conditions: ATP at Km
Sequence of TEK (Q02763 23-1124): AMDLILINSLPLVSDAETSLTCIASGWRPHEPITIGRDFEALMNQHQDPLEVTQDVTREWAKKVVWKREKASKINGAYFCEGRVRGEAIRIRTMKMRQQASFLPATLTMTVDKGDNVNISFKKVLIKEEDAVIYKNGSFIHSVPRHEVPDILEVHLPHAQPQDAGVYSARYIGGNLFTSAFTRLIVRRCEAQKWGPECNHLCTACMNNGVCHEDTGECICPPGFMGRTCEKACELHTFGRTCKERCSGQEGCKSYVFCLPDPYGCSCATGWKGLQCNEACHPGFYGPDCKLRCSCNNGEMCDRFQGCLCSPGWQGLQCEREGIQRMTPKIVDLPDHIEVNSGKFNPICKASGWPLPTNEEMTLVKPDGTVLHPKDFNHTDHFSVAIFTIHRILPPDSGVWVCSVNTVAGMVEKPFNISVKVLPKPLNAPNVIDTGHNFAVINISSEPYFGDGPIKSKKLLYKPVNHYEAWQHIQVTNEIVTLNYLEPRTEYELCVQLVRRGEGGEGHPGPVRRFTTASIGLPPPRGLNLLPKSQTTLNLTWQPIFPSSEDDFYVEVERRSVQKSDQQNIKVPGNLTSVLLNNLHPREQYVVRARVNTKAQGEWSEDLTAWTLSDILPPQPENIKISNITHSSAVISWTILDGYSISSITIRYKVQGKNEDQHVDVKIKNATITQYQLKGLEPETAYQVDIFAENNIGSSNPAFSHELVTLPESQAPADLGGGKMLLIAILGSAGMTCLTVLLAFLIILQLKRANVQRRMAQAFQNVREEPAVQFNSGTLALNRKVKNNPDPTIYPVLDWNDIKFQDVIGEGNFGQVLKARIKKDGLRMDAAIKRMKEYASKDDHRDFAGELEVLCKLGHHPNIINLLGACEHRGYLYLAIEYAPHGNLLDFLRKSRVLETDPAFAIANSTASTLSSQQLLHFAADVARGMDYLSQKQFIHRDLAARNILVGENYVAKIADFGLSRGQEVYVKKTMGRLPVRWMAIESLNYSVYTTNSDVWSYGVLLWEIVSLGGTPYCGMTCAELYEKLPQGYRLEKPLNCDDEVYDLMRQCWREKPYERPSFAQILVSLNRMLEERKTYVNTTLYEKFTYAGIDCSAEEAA
Description: as §1

Ret = Ret (Homo sapiens, UniProt P07949); assay: KinaseProfiler kinase activity assay; type: biochemical; design: purchased EMD Millipore Corp. (KinaseProfiler service); conditions: ATP at Km
Sequence of Ret (P07949 29-1114): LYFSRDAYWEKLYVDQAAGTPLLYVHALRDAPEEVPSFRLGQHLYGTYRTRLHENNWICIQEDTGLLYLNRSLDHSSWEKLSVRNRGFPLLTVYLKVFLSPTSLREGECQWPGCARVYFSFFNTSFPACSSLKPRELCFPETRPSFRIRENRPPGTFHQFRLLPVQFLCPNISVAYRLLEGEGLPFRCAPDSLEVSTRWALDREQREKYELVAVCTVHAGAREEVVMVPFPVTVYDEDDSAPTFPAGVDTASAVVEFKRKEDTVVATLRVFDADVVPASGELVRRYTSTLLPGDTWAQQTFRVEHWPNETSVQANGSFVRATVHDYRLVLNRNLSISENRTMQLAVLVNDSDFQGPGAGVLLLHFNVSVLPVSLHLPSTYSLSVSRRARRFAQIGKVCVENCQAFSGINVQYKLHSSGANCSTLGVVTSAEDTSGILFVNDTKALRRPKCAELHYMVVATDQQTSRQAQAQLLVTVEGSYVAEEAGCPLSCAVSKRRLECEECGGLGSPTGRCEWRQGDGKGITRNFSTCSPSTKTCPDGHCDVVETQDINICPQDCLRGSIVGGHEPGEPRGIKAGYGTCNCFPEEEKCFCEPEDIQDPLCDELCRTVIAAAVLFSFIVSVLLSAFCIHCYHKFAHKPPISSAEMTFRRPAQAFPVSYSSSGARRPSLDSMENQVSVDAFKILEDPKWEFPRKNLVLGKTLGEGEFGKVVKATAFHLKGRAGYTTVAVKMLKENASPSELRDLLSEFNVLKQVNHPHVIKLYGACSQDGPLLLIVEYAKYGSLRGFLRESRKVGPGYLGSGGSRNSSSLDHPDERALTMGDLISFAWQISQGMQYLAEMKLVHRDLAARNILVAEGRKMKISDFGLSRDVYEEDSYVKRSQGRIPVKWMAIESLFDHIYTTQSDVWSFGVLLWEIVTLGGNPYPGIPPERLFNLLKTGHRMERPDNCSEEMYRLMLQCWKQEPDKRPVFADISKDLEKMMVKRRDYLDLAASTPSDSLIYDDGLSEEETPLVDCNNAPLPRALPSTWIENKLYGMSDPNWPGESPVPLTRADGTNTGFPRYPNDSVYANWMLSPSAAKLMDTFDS
Description: as §1

Wee1 = Wee1 (Homo sapiens, UniProt P30291); assay: KinaseProfiler kinase activity assay; type: biochemical; design: purchased EMD Millipore Corp. (KinaseProfiler service); conditions: ATP at Km
Sequence of Wee1 (P30291 whole entry): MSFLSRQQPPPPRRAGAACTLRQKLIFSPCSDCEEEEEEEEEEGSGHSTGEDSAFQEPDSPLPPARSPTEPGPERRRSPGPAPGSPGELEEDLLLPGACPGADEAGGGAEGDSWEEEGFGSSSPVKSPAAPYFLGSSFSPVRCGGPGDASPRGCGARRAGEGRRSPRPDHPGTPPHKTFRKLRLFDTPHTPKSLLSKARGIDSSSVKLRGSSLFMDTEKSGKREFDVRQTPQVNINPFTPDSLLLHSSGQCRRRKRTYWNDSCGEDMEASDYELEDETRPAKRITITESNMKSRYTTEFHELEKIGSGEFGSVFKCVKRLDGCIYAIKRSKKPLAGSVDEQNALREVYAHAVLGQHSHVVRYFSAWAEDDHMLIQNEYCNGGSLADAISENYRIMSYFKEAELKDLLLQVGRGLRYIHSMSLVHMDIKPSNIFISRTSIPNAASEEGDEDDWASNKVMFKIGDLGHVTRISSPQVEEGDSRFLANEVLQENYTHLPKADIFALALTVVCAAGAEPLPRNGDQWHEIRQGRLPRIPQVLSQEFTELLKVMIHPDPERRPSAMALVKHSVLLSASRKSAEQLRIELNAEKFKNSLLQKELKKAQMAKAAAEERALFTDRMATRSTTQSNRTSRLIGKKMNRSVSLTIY
Description: as §1

Flt3 = Flt3 (Homo sapiens, UniProt P36888); assay: KinaseProfiler kinase activity assay; type: biochemical; design: purchased EMD Millipore Corp. (KinaseProfiler service); conditions: Flt3 wild-type; ATP at Km
Description: as §1

Ret (V804L) = Ret (V804L) (Homo sapiens, UniProt P07949, V804L); assay: KinaseProfiler kinase activity assay; type: biochemical; design: purchased EMD Millipore Corp. (KinaseProfiler service); conditions: ATP at Km
Sequence of Ret (V804L) (P07949 29-1114 V804L): as the sequence (P07949 29-1114) above, with V776L counted along it
Description: as §1

Ret (M918T) = target: T1, Ret (M918T) (Homo sapiens, UniProt P07949, M918T); assay: KinomeScan competition binding assay
T1 construct: purchased DiscoveRx Corporation (KinomeScan service)
T1 sequence (P07949 29-1114 M918T): as the sequence (P07949 29-1114) above, with M890T counted along it
Description: (§2) Detailed assay methodologies can be found in the relevant references cited herein, or in the KinaseProfiler Service Assay Protocols (v54, 2011) available from EMD Millipore (www.emdmillipore.com), or from the KinomeScan website (www.kinomescan.com), as appropriate. (For a more detailed description of KINOMEscan's assay technology, see: Fabian et al. A small molecule-kinase interaction map for clinical kinase inhibitors. Nat. Biotechnol. 23, 329-336 (2005)). A summary is provided below.
(§3) KinomeScan™ assays (DiscoveRx Corporation, San Diego, Calif., USA) are active-site-directed competition binding assays. […] The amount of kinase captured in test versus control samples is determined by using a qPCR method that detects the associated DNA label on each kinase molecule. Dissociation constants (Kd) for test compound-kinase interactions are calculated by measuring the amount of kinase captured on the solid support as a function of the test compound concentration.

Ysk4 = target: T2, Ysk4 (Homo sapiens, UniProt Q56UN5); assay: KinomeScan competition binding assay
T2 construct: purchased DiscoveRx Corporation (KinomeScan service)
Description: as §2, §3

Flt3 (D835H) = target: T3, Flt3 (D835H) (Homo sapiens, UniProt P36888, D835H); assay: KinomeScan competition binding assay
T3 construct: purchased DiscoveRx Corporation (KinomeScan service)
Description: as §2, §3

[1] = system: Ba/F3 cells (WT, FLT3 WT, FLT3 ITD, FLT3 D835Y); assay: WST-1 and 3H-Thymidine incorporation cell proliferation assays, all Ba/F3 lines; type: cell-based, Murine; conditions: by 3 μM; regardless of cell line
Description: Murine pro-B lymphocyte line Ba/F3 wild type (Ba/F3 WT), and Ba/F3 lines stably transduced with expression vectors that encoded wild-type human FLT3 (Ba/F3 FLT3 WT cells) or human FLT3 containing an ITD mutation (Ba/F3-ITD cells) or D835Y (Ba/F3 D835Y cells) point mutations, which lead to constitutively functional activation of the protein, were obtained from Bjørn Tore Gjertsen (Department of Clinical Science, Hematology Section, University of Bergen, Bergen, Norway). […]
Proliferation of cells was assessed using the tetrazolium salt WST-1 that is cleaved to chromogenic formazan dye by mitochondrial dehydrogenases in viable cells. […] The absorbance of the samples was measured by Spectramax Plus 384 Spectrophotometer (Molecular Devices Corp., Sunnyvale, Calif., USA) and the percentage of proliferation was calculated by using the following formula: (Arbitrary units (AU) of treated sample−AU of background control)/(AU of untreated sample−AU of background control).
Following 18 hours incubation, the DNA was harvested and radioactivity was assessed by liquid scintillation counting (Packard Microplate Scintillation and Luminescence counter, Perkin Elmer Life and Analytical Science, Inc., Waltham, USA).

Sequence of Ret (V804M) (P07949 29-1114 V804M): as the sequence (P07949 29-1114) above, with V776M counted along it

Structure (SMILES): Nc1nc(Nc2ccc3c(c2)CC[C@@H](N2CCCC2)CC3)nn1-c1cc2c(nn1)-c1ccccc1CCC2 [Compound A, 1-(6,7-dihydro-5H-benzo[6,7]cyclohepta[1,2-c]pyridazine-3-yl)-N^3-(7-(S)-(pyrrolidin-1-yl)-6,7,8,9-tetrahydro-5H-benzo[7]annulene-2-yl)-1H-1,2,4-triazole-3,5-diamine]
- IC50 (Ret (V804M)): 21 nM
- IC50 (Flt4): 41 nM
- IC50 (Yes): 43 nM
- IC50 (Stk10): 22 nM
- IC50 (Flt1): 40 nM
- IC50 (Flt3 (D835Y)): 13 nM
- IC50 (TEK): 30 nM and 41 nM
- IC50 (Ret): 38 nM and 22 nM
- IC50 (Wee1): 32 nM
- IC50 (Flt3): 122 nM
- IC50 (Ret (V804L)): 11 nM
- Kd (Ret (M918T)): 30 nM
- Kd (Ysk4): 1.6 nM
- Kd (Flt3 (D835H)): 8.4 nM
- cell death in proliferation assays [1]: all cells are dead

Reference: patent US9801880B2, “Use of kinase inhibitors” (BerGenBio AS, priority 2013, dated 2017)
